Test results as given in patent publication US9669003B2, “Use of flavone and flavanone derivatives in preparation of sedative and hypnotic drugs” (priority 2012, dated 2017).
Marks after values point to notes of the source that are not given here.

Experiments:
Assay type in all cases: in vivo
[1] = tested on: Kunming mice; test: Influence on autonomic activity of normal mice (ZIL-2 mice autonomic activity meter, counts within 10 min); conditions: intragastric, x ± s, n = 10; for Times of activities in 1 h after drug administration/10 min: 1 h after administration; for Times of activities in 2 h after drug administration/10 min: 2 h after administration; for Times of activities in 24 h after drug administration/10 min: 24 h after administration
Description: (§1) 1.1 Animals for experiments: Kunming mice, weighting 18.9˜22.2 g for females, and 20.2˜23.0 g for males, licensed under SCXK-(Ji) 2007-0003, and provided by The experimental animal centre, Jilin University.
(§2) 1.2 Chemicals for experiments: The flavone derivatives provided in Examples 1-41 and the flavanone derivatives provided in Examples 42-71 are all formulated with 0.5% sodium carboxymethyl cellulose as solutions with required concentrations.
(§3) 1.3 Grouping of animals: 6420 animals are employed in the entire experiments and 2140 of the animals are randomly divided into 214 groups by gender, and the […] include: control group, low dosage group for each experimental drugs (25 mg/kg), medium dosage group for each experimental drugs (50 mg/kg), and high dosage group for each experimental drugs (100 mg/kg). Each group has 10 animals and either female or male constitutes half of the group. The groups are used in behavior observation and voluntary action observation. The other 4280 animals are randomly divided into 214 groups by gender respectively (the grouping way is the same with that described above). Each group has 20 animals and either female or male constitutes half of the group. In each group, 10 animals are used in hypnosis experimentations with pentobarbital sodium doses below the threshold, and the other 10 animals are used hypnosis experimentations with pentobarbital sodium doses at the threshold.
1.4 Experimental instrument and agents: ZIL-2 mice autonomic activity meter, production of Institute of Materia Medica of Chinese Academy of Medical Sciences; pentobarbital sodium, Lot: 100808, 25 g/bottle, Beijing Chemical Reagent Company equipment imported from Germany.
1.5.2 Influence on Autonomic Activity of Normal Mice
After observing the general behavior, in 1 h, 2 h and 24 h after drug administration, respectively, ZIL-2 mice autonomic activity meter is put respectively. Number of autonomic activities of each group of mice is measured within 10 min. Results among groups are compared.
(§4) Number of autonomic activities is detected by leneve Test for homogeneity of variance. If the homogeneity of variance is good (P>0.05), statistical analysis is performed with ANOVA. If ANOVA have statistical significance (P≦0.05), Dunnett's test for multiple comparisons analysis is performed. Number of animals of sleeping mice is applied of ANOVA. Incidence rate of animal asleep is applied of χ2 test. Sleep latency and sleep duration are recorded in min, averaged by group, represented by standard deviation, and undergo statistical analysis using ANOVA.

[2] = tested on: Kunming mice; test: Influence on hypnosis effect with pentobarbital sodium doses below the threshold (25 mg/kg i.p.); conditions: pentobarbital sodium 25 mg/kg i.p. 60 min later, sleep observed in 30 min, n = 10
Description: as §1, §2, §3
1.5.3 Influence on Hypnosis Effect with Mice Pentobarbital Sodium Doses Below the Threshold
The drug is intragastric administered in mice for single time, 2 animals of each group are given drug per round with the dosing interval of 40 min (±5 min). According to the administration round, in 60 min (±5 min) of each round after the drug administration, the animals were intraperitoneally injected 0.3% sodium pentobarbital 25 mg/kg, respectively. Sleep condition of the animals were observed within 30 min (under sleep determination standard of loss of righting reflex more than 1 min). After animals undergo loss of righting reflex, number of the animals is recorded, to calculate sleep percentage.
as §4

[3] = tested on: Kunming mice; test: Influence on hypnosis effect with pentobarbital sodium doses at the threshold (50 mg/kg i.p.); conditions: pentobarbital sodium 50 mg/kg i.p. 60 min later, x ± s, n = 10
Description: as §1, §2, §3
1.5.4 Influence on Hypnosis Effect with Mice Pentobarbital Sodium Doses at the Threshold
The drug is intragastric administered in mice for single time, 2 animals of each group are given drug per round with the dosing interval of 40 min (±5 min). According to the administration round, in 60 min (±5 min) of each round after the drug administration, the animals were intraperitoneally injected 0.3% sodium pentobarbital 50 mg/kg, respectively. Time to fall asleep (sleep latency) and sleep duration of the animals were recorded within under sleep determination standard of loss of righting reflex more than 1 min.
as §4

[4] = test drug 25 mg/kg intragastric single dose
[5] = test drug 50 mg/kg intragastric single dose
[6] = test drug 100 mg/kg intragastric single dose
[7] = 25 mg/kg intragastric single dose
[8] = 50 mg/kg intragastric single dose
[9] = 100 mg/kg intragastric single dose

Compound	Times of activities in 1 h after drug administration/10 min ([1]; 25 mg/kg)	Times of activities in 2 h after drug administration/10 min ([1]; 25 mg/kg)	Times of activities in 24 h after drug administration/10 min ([1]; 25 mg/kg)	Times of activities in 1 h after drug administration/10 min ([1]; 50 mg/kg)	Times of activities in 2 h after drug administration/10 min ([1]; 50 mg/kg)	Times of activities in 24 h after drug administration/10 min ([1]; 50 mg/kg)	Times of activities in 1 h after drug administration/10 min ([1]; 100 mg/kg)	Times of activities in 2 h after drug administration/10 min ([1]; 100 mg/kg)	Times of activities in 24 h after drug administration/10 min ([1]; 100 mg/kg)	Number of sleeping animals [2, 4]	rate of sleeping (%) [2, 4]	Number of sleeping animals [2, 5]	rate of sleeping (%) [2, 5]	Number of sleeping animals [2, 6]	rate of sleeping (%) [2, 6]	duration of sleep [3, 7] [min]	time to sleep [3, 7] [min]	duration of sleep [3, 8] [min]	time to sleep [3, 8] [min]	duration of sleep [3, 9] [min]	also measured
6,7,8,4′-tetramethoxyl-flavone [Example 6]	330.1 ± 51.2 /10 min	314.5 ± 56.7 /10 min	338.1 ± 96.3 /10 min	286.7 ± 61.7 /10 min	279.5 ± 48.2 /10 min	311.5 ± 91.5 /10 min	238.3 ± 36.3 /10 min	249.8 ± 45.8 /10 min	308.2 ± 82.7 /10 min	3	30%	5	50** %	6	60** %	29.81 ± 21.65	5.51 ± 1.39	47.21 ± 22.93	4.20 ± 1.40	55.33 ± 19.32	time to sleep [3, 9]: 3.91 ± 2.16 min
COc1cc(OC)c2c(=O)cc(-c3cc(OC)c(OC)c(OC)c3)oc2c1 [Example 1, 5,7,3′,4′,5′-penta methoxyl-flavone]	215.3 ± 40.1 /10 min	211.2 ± 36.3 /10 min	274.4 ± 81.2 /10 min	137.1 ± 52.3 /10 min	168.5 ± 57.9 /10 min	275.2 ± 79.3 /10 min	98.2 ± 41.9 /10 min	96.2 ± 55.7 /10 min	301.2 ± 80.7 /10 min	5	50** %	7	70** %	10	100*** %	65.42 ± 27.30	3.84 ± 1.65	78.60 ± 14.67	3.54 ± 1.44	98.33 ± 21.63	time to sleep [3, 9]: 2.75 ± 1.62 min
COc1ccc(-c2cc(=O)c3c(O)cc(OC)c(OC)c3o2)cc1O [Example 2, 5,3′-dihydroxyl-7,8,4′-trimethoxyl-flavone]	320.1 ± 54.7 /10 min	293.5 ± 40.8 /10 min	302.7 ± 77.5 /10 min	295.3 ± 41.8 /10 min	254.2 ± 41.1 /10 min	306.2 ± 90.6 /10 min	281.3 ± 47.6 /10 min	223.5 ± 45.7 /10 min	311.4 ± 80.3 /10 min	5	50** %	6	60** %	7	70** %	35.56 ± 15.89	6.61 ± 2.22	39.23 ± 23.45	4.95 ± 2.23	53.55 ± 22.04	time to sleep [3, 9]: 3.92 ± 1.12 min
COc1cc(OC)c2c(=O)cc(-c3ccccc3O)oc2c1OC [Example 3, 2′-hydroxyl-5,7,8-trimethoxyl-flavone]	283.4 ± 45.8 /10 min	264.7 ± 46.1 /10 min	305.8 ± 80.9 /10 min	236.2 ± 41.5 /10 min	246.3 ± 49.1 /10 min	298.8 ± 71.0 /10 min	180.5 ± 35.3 /10 min	174.7 ± 40.5 /10 min	286.9 ± 90.4 /10 min	3	30%	4	40* %	6	60** %	39.65 ± 18.32	4.41 ± 1.43	56.76 ± 24.86	3.90 ± 1.93	59.76 ± 25.75	time to sleep [3, 9]: 3.86 ± 1.22 min
